Assay results as given in patent publication US20220370456A1, “COMBINATION THERAPIES COMPRISING SHP2 INHIBITORS AND EGFR TYROSINE KINASE INHIBITORS” (HUYABIO International, LLC, priority 2021, published 2022).
Read-outs that look alike come from different tables or passages of the source.

Assays:
HCC827-ER1 cells = experiment: Cell viability assay (CellTiter-Glo), cell proliferation; type: cell-based; conditions: for IC50: HCC827-ER1, read on Day 5, CellTiter-Glo, read-out: Absolute IC50
Description: (§1) Cell lines and maintenance: Both cell lines (HCC827-ER1 and NCI-H1975) used for in vitro and in vivo studies were supplied by Crown Biosciences cell bank. […] NCI-H1975 cells were maintained in RPMI medium supplemented with 10% heat inactivated fetal bovine serum+100 ug/mL Hygromyocin at 37° C. in an atmosphere of 5% CO2 in air. The tumor cells were routinely subcultured twice weekly. The cells growing in an exponential growth phase were used for the in vitro cell potency and in vivo efficacy studies.
(§2) Cell Viability Assay: For cell cytotoxicity assays, cells were plated in 96-well plates and plating densities were determined on the basis of Crown Biosciences Cell line Database. Cells were plated at 2000 cells/well. Twenty four hours after plating, cells were treated with inhibitors at the indicated compound concentrations. On Day 5, cells were lysed with CellTiter-Glo® Luminescent Cell Viability Assay reagent (Promega) and luminescence was read using the EnVision Multi-plate reader. To calculate IC50s, a dose-response curve is generated using a nonlinear regression model with a sigmoidal dose response. IC50s were automatically generated by GraphPad Prism 8.0. The formula of surviving rate is shown below:
(§3) The surviving rate (%)=((LumTest article−LumMedium control)/(LumNone treated−LumMedium control))×100

[1] = test system: NCI-H1975 (L858R/T790M/C797S) cells; experiment: as above; type: cell-based; conditions: for IC50: NCI-H1975 (L858R/T790M/C797S), read on Day 5, CellTiter-Glo, read-out: Absolute IC50
Description: as §1, §2, §3

HCC827-ER1 tumor = HCC827-ER1 tumor model, in vivo tumor volume; conditions: HCC827-ER1 tumors in female Balb/C Nude animals, during treatment, FIG. 2A-B
Description: Animals (6-8 weeks) were obtained from Shanghai Lingchang Biotechnology Co., Ltd (Shanghai, China) and were allowed to acclimate prior to tumor cell inoculation.
All cell lines were maintained in culture and cells in exponential growth phase were harvested and quantitated by cell counter before tumor inoculation. HCC827-ER1 tumor cells (5×10^7) in 0.1 ml of PBS mixed with Matrigel (1:1) inoculated into female Balb/C Nude animals, mean tumor approximately 325 mm^3 at the start of treatment.
The date of randomization and treatment initiation was denoted as day 0. Tumor volumes were measured twice per week in two dimensions using a caliper, and the volume will be expressed in mm^3 using the formula: V=(L×W×W)/2, where V is tumor volume, L is tumor length (the longest tumor dimension) and W is tumor width (the longest tumor dimension perpendicular to L). Dosing volume was 10 mL/kg/day. GH21005 were dissolved in HP-β-CD was dissolved with 200 ml of 50 mM sodium citrate (pH=4.2). Anti-PD-1 and Rat IgG2a were diluted in PBS.
Upon termination, tumors were collected 2 hours post last dose.

| IC50 (HCC827-ER1 cells; 120 h) [µM] | IC50 ([1]; Homo sapiens, 120 h) [µM] | Structure (SMILES) | IC50 (HCC827-ER1 cells) [µM] | IC50 [1] [µM] | potency in cell proliferation assay compared to TNO-155 and RMC-4550 (HCC827-ER1 cells; HCC827-ER1 cell model, FIG. 1A) | potency in cell proliferation assay compared to TNO-155 and RMC-4550 ([1]; NCI-H1975 cell model, FIG. 1B) | effect on tumor volume (HCC827-ER1 tumor) |
| --- | --- | --- | --- | --- | --- | --- | --- |
| – | – | N.N.[Cl][Pt][Cl] [Cisplatin] | 7.17 | 10.3 | – | – | – |
| 1.89 | > 10 | C[C@H]1OCC2(CCN(c3cnc(Sc4ccnc(N)c4Cl)c(N)n3)CC2)[C@H]1N [GH21001(TNO-155)] | – | – | – | – | – |
| 0.08 | 0.96 | C[C@@H]1OCC2(CCN(c3cnc(Sc4cccc(NC(=O)c5c(O)nc6n(c5=O)CCCC6)c4Cl)cn3)CC2)[C@@H]1N [GH21005(HBI-2376), N-(3-((5-((3S,4S)-4-amino-3-methyl-2-oxa-8-azaspiro[4.5]decan-8-yl)pyrazin-2-yl)thio)-2-chlorophenyl)-2-hydroxy-4-oxo-6,7,8,9-tetrahydro-4H-pyrido[1,2-a]pyrimidine-3-carboxamide] | – | – | superior potency | superior potency | did not result in a reduction of tumor volume |

| Structure (SMILES) | IC50 (HCC827-ER1 cells; 120 h) [µM] | IC50 ([1]; Homo sapiens, 120 h) [µM] | IC50 (HCC827-ER1 cells) [µM] | IC50 [1] [µM] | potency in cell proliferation assay compared to TNO-155 and RMC-4550 (HCC827-ER1 cells; HCC827-ER1 cell model, FIG. 1A) | potency in cell proliferation assay compared to TNO-155 and RMC-4550 ([1]; NCI-H1975 cell model, FIG. 1B) | effect on tumor volume (HCC827-ER1 tumor) |
| --- | --- | --- | --- | --- | --- | --- | --- |
| C=CC(=O)Nc1cc(Nc2nccc(-c3cn(C)c4ccccc34)n2)c(OC)cc1N(C)CCN(C)C [Osimertinib] | 2.8 | […] | – | – | – | – | only a slight and temporary decrease in tumor volume, followed by growth in tumor volume |
